Reference: US12090140B2, “Non-sedating dexmedetomidine treatment regimens” (priority 2023, dated 2024)
Where “and” joins values, the source holds several entries; their conditions need not be identical. Identical values can stand only once. Counter-ions that a name gives are not always drawn. Like-named read-outs stand apart in the source and are kept apart here.

How the values were obtained:
[1] = pH 7.4; cited from earlier work
[2] = IV infusion
Text: (§1) Mean infusion rate is 0.36 mcg/kg/hr with the maximum rate ranging from about 0.2 mcg/kg/hr to about 0.6 mcg/kg/hr (see FIGS. 18 to 20).

plasma proteins = settings: in vitro; cited from earlier work
clinical = settings: human, in vivo, iv
Text: as §1

[3] = tested on: subjects suffering from schizophrenia; settings: for RASS values after infusion start, individual patients: IV infusion, treatment arm
Text: Another Key Objective of the study was to determine the reduction in the level of agitation, as determined by their PEC score, at the doses to achieve a RASS of −1.
Patients 5, 7, 8 and 9 received placebo.

[4] = tested on: agitation in subjects suffering from schizophrenia
[5] = tested on: adult patients and healthy adult subjects; settings: cited from earlier work
[6] = cited from earlier work; for Mean clearance relative to subjects with normal hepatic function: IV infusion of 0.6 meg/kg over 10 minutes
[7] = IV infusion from 0.2 mcg/kg/hr, rising 0.1 mcg/kg/hr every 30 minutes

**Q.** Which “Partition coefficient in octanol/water” value [1] does the source give for Cc1cccc([C@H](C)c2cnc[nH]2)c1C [Dexmedetomidine hydrochloride, 4-[(1S)-1-(2,3-dimethylphenyl)ethyl]-1H-imidazole hydrochloride] here?
**A.** 2.89

**Q.** And the Plasma level concentration ([2]; Patient 1 (treatment), 15 min)?
**A.** 0.02245 ng/mL

**Q.** What about the Plasma level concentration ([2]; Patient 1 (treatment), 30 min) of the same compound?
**A.** 0.01472 ng/mL

**Q.** And the Plasma level concentration ([2]; Patient 4 (treatment), 90 min)?
**A.** 0.0443 ng/mL

**Q.** And the Plasma level concentration ([2]; Patient 11 (treatment), 15 min)?
**A.** 0.04101 ng/mL

**Q.** What about the Plasma level concentration ([2]; Patient 11 (treatment), 30 min) of the same compound?
**A.** 0.06291 ng/mL

**Q.** And the Plasma level concentration ([2]; Patient 11 (treatment), 45 min)?
**A.** 0.12407 ng/mL

**Q.** What about the Plasma level concentration ([2]; Patient 11 (treatment), 60 min) of the same compound?
**A.** 0.15047 ng/mL

**Q.** What about the Plasma level concentration ([2]; Patient 12 (treatment), 30 min) of the same compound?
**A.** 0.04487 ng/mL

**Q.** And the Plasma level concentration ([2]; Patient 12 (treatment), 45 min)?
**A.** 0.05051 ng/mL

**Q.** What about the Plasma level concentration ([2]; Patient 12 (treatment), 60 min) of the same compound?
**A.** 0.1086 ng/mL

**Q.** What about the Plasma level concentration ([2]; Patient 12 (treatment), 75 min) of the same compound?
**A.** 0.15854 ng/mL

**Q.** And the Plasma level concentration ([2]; Patient 12 (treatment), 90 min)?
**A.** 0.23783 ng/mL

**Q.** What about the Plasma level concentration ([2]; Patient 14 (treatment), 30 min) of the same compound?
**A.** 0.05266 ng/mL

**Q.** What about the Plasma level concentration ([2]; Patient 14 (treatment), 45 min) of the same compound?
**A.** 0.04653 ng/mL

**Q.** And the Plasma level concentration ([2]; Patient 14 (treatment), 60 min)?
**A.** 0.4063 ng/mL

**Q.** And the Plasma level concentration ([2]; Patient 16 (treatment), 15 min)?
**A.** 0.00256 ng/mL

**Q.** And the Plasma level concentration ([2]; Patient 16 (treatment), 30 min)?
**A.** 0.01559 ng/mL

**Q.** And the Plasma level concentration ([2]; Patient 16 (treatment), 45 min)?
**A.** 0.04117 ng/mL

**Q.** What about the Plasma level concentration ([2]; Patient 16 (treatment), 60 min) of the same compound?
**A.** 0.06788 ng/mL

**Q.** What about the Plasma level concentration ([2]; Patient 16 (treatment), 75 min) of the same compound?
**A.** 0.07226 ng/mL

**Q.** What about the Plasma level concentration ([2]; Patient 17 (treatment), 15 min) of the same compound?
**A.** 0.01587 ng/mL

**Q.** What about the Plasma level concentration ([2]; Patient 17 (treatment), 45 min) of the same compound?
**A.** 0.03993 ng/mL

**Q.** What about the Plasma level concentration ([2]; Patient 18 (treatment), 15 min) of the same compound?
**A.** 0.04836 ng/mL

**Q.** And the Plasma level concentration ([2]; Patient 18 (treatment), 30 min)?
**A.** 0.05453 ng/mL

**Q.** What about the “Displacement of phenytoin, warfarin, ibuprofen, propranolol, theophylline and digoxin” value (plasma proteins) of the same compound?
**A.** none of these compounds appeared to be significantly displaced

**Q.** And the Cmax (clinical)?
**A.** 0.022 ng/mL

**Q.** And the “RASS values after infusion start, individual patients” value (shortened to “RASS values after infusion start”) ([3]; 15 minutes, hydrochloride)?
**A.** −2 and −1

**Q.** And the “RASS values after infusion start” value ([3]; 30 minutes)?
**A.** 0

**Q.** What about the “RASS values after infusion start” value ([3]; 75 minutes) of the same compound?
**A.** −1

**Q.** What about the “RASS values after infusion start” value ([3]; 90 minutes) of the same compound?
**A.** 0

**Q.** What about the “Patients achieving a RASS score of at least −1” value [3, 7] of the same compound?
**A.** 9 out of 10

**Q.** What about the “RASS values after infusion start” value ([3]; […]) of the same compound?
**A.** 0

**Q.** What about the “Patients with agitation reduced to a minimum (PEC score of 7 or below)” value [4, 7] of the same compound?
**A.** 9 out of 10

**Q.** And the “Subjects with >=50% reduction in PEC score” value ([4]; IV route)?
**A.** 7 of 10

**Q.** And the “Subjects with a 40% reduction in PEC score at a Cmax of =<72 μg/mL” value ([4]; IV route)?
**A.** 5 of 10

**Q.** With Cc1cccc([C@H](C)c2c[nH]cn2)c1C [intravenous dexmedetomidine] as the compound, how does the Effects of overdose ([5]; IV 2 mcg/kg loading dose over 10 minutes, two patients) read?
**A.** bradycardia and/or hypotension

**Q.** What about the “Maximum blood concentration in tolerability study” value ([5]; IV doses at and above 0.2 to 0.7 mcg/kg/hour, healthy adult subjects) of the same compound?
**A.** approximately 13 times the upper boundary of the therapeutic range

**Q.** What about the “Most notable effects at the highest doses” value ([5]; IV tolerability study, two subjects) of the same compound?
**A.** first degree atrioventricular block and second-degree heart block

**Q.** What about the “Adult patients with at least 1 event related to withdrawal, n (%)” value ([5]; IV up to 7 days, within the first 24 hours after discontinuing) of the same compound?
**A.** 12 (5%)

**Q.** What about the “Adult patients with at least 1 event related to withdrawal, n (%)” value ([5]; IV, 24 to 48 hours after discontinuing) of the same compound?
**A.** 7 (3%)

**Q.** And the “Frequency of tachycardia and hypertension requiring intervention” value ([5]; IV, 48 hours following discontinuation)?
**A.** < 5%

**Q.** And the “Effect of sex on pharmacokinetics” value ([6]; intravenous)?
**A.** no observed difference

**Q.** What about the “Mean clearance relative to subjects with normal hepatic function” value (“Mean clearance relative to subjects” below) ([6]; mild hepatic impairment) of the same compound?
**A.** 74%

**Q.** And the “Mean clearance for free drug relative to subjects with normal hepatic function” value ([6]; mild hepatic impairment)?
**A.** 59%

**Q.** And the “Mean clearance relative to subjects” value ([6]; moderate hepatic impairment)?
**A.** 64%

**Q.** And the “Mean clearance for free drug relative to subjects with normal hepatic function” value ([6]; moderate hepatic impairment)?
**A.** 51%

**Q.** And the “Mean clearance relative to subjects” value ([6]; severe hepatic impairment)?
**A.** 53%

**Q.** And the “Mean clearance for free drug relative to subjects with normal hepatic function” value ([6]; severe hepatic impairment)?
**A.** 32%
